“And” between values parts separate entries of the source, which are not always exact repeats. Identical values can stand only once.
Key:
[1] = Brain tissue levels of AIT-082 (HPLC); assay type: in vivo, C57BL/6 mice; settings: for Level of AIT-082 in brain tissue: 30 mg/kg i.p., 30 minutes after administration, 30 mg/kg
S100β protein = experiment: Western blot of astrocyte cytosolic proteins: S100β; assay type: cell-based, rat; settings: 100 μM AIT-082
C57BL/6 mice = experiment: Win-shift duration of memory trace, C57BL/6 mice; assay type: in vivo; settings: for Correct (Mean score ± S.E.) / No. above chance/Total #: AIT-082 30 mg/kg
Description: To determine the duration of the memory trace, subjects were administered drug or saline and 30 minutes (PHY) or 1 hour (AIT-082 or THA) later they were given a single reference run with the milk reward in both goal boxes. After the indicated inter-trial delay, subjects were returned to the start box and given the first test trial with the milk reward only in the goal box opposite to the one entered on the previous correct trial. The subjects were given 10 trials with the reward alternating only after correct responses.
Previous work has established that normal adult Swiss Webster mice have a memory trace duration of 60 seconds in the win-shift paradigm which may be increased by the administration of AIT-082.

BDNF mRNA = experiment: Northern blot of neurotrophin mRNA from astrocytes: BDNF; assay type: cell-based, NIH Swiss mice; set-up: key: The conditions which produced a detectable amount of each of the neurotrophin mRNAs are indicated by a “+”; a “++” indicating that at least twice the detectable amount was present; Those blots which were negative are indicated by a “−”; settings: 24 hours
Description: Induction of neurotrophin mRNA was determined by northern blot analysis of astrocytes cultured with AIT-082, NGF, or both. The cells were harvested and RNA extracted at 24 hours after treatment.
More particularly, astrocytes from the cerebral cortex of NIH Swiss mice (Harlan) were isolated. Briefly, newborn pups (0-24 hours) were decapitated. Their brains were removed under aseptic conditions and were placed in modified Dulbecco's medium (DMEM) containing 20% heat-inactivated horse serum (Hyclone) (“complete medium”). The neopallium was then dissected from each cerebral hemisphere and minced into 1 mm cubes.
The astrocytes were then isolated by mechanical dissociation. The cubes were vortexed at maximum speed for one minute. The cell suspension was then passed first through 75 mm Nitex then through 10 mm Nitex. The resulting cell suspension was diluted in complete medium to a final concentration of one brain per 10 ml of complete medium. Ten milliliters of the diluted cell suspension was added to each 100 mm Falcon tissue culture plate (Fisher). After 3 days the medium was replaced with 10 ml fresh complete medium and subsequently was replaced twice weekly with DMEM containing 10% heat inactivated horse serum (“growth medium”). After two weeks in culture the astrocytes formed a confluent monolayer.
For RNA extraction, astrocytes were trypsinized. The astrocytes were then replated onto 100 mm PORN coated plates at a cell density of 10^6 cells per plate (10 ml growth medium). […]
The blots were probed with ^32P-labeled cDNA (NGF, NT-3 and BDNF probes) or oligonucleotide probe (FGF-2) by hybridization in Piperazine-N,N′-bis-(2-ethanesulfonic acid) (PIPES) buffer (50 mM PIPES, pH 6.8; 50 mM NaH2PO4; 0.1 M NaCl; 5% SDS and 1 mM EDTA) overnight at 50° C. […] Various concentrations ([…] of total RNA), as determined by spectrophotometry, of each sample were blotted and probed so that quantification could be done after insuring a linear film response. Quantification was performed using MCID Image Analysis (St. Catherine's, Ontario, Canada). […]

acetylcholine receptors = assay type: binding, mouse
NT-3 = experiment: Summary of effects on growth factor mRNA and protein (Table R): NT-3; set-up: key: ± = mRNA; + = protein; nt = not tested
Description: (§1) The constellation of effects of AIT-082 on production of mRNA encoding growth factors and on production of growth factor proteins is shown in Table R. The results summarized in […] show both transcriptional and translational effects on growth factors that are in the categories of neurotrophins, pleiotrophins, members of the S100 family of EF hand calcium binding proteins, and members of the TGFβ superfamily. As indicated, effects have been shown at both the mRNA (transcriptional) and protein (translational) levels.

GDNF = experiment: Summary of effects on growth factor mRNA and protein (Table R): GDNF; set-up: key: ± = mRNA; + = protein; nt = not tested
Description: as §1

## O=C(CCn1cnc2c(=O)[nH]cnc21)Nc1ccc(C(=O)O)cc1 [AIT-082, N-4-carboxyphenyl-3-(6-oxohydropurin-9-yl)propanamide]
[1]; 30 minutes after oral administration
  level detected in brain: ≤ 3.3 ng/mg brain tissue
[1]; Cortex
  Level of AIT-082 in brain tissue: 2.8 ng/mg brain tissue and 3.4 ng/mg brain tissue
[1]; Remainder of brain
  Level of AIT-082 in brain tissue: 2.3 ng/mg brain tissue and 3.3 ng/mg brain tissue
[1]; brain tissue after 30 minutes
  passage of the blood-brain barrier: crosses the blood-brain barrier without degradation
S100β protein
  ex novo synthesis of S100β protein: did not stimulate ex novo synthesis of S100β protein
C57BL/6 mice; AIT-082 30 mg/kg i.p., untreated 120 seconds
  duration of the memory trace: over 210 seconds
C57BL/6 mice; inter-trial interval 180 sec
  Correct (Mean score ± S.E.): 70 ± 15
  No. above chance/Total #: 4/6
C57BL/6 mice; inter-trial interval 210 sec
  Correct (Mean score ± S.E.): 78 ± 15
  No. above chance/Total #: 4/6
C57BL/6 mice; inter-trial interval 240 sec
  Correct (Mean score ± S.E.): 50 ± 6
  No. above chance/Total #: 0/6
C57BL/6 mice; inter-trial interval 270 sec
  Correct (Mean score ± S.E.): 50 ± 6
  No. above chance/Total #: 0/6
BDNF mRNA; AIT-082 100 mM
  BDNF mRNA: +
BDNF mRNA; AIT-082 + NGF (40 ng/ml)
  BDNF mRNA: +
Acetylcholine receptors
  interference with the binding of QNB: no effect
NT-3; Aged Brain
  NT-3, effect on mRNA/protein production: +
NT-3; Cultured Cells
  NT-3, effect on mRNA/protein production: ±
NT-3; Lesioned Spinal Cord
  NT-3, effect on mRNA/protein production: ±
NT-3; Normal Brain
  NT-3, effect on mRNA/protein production: +
GDNF; Aged Brain
  GDNF, effect on mRNA/protein production: +
GDNF; Lesioned Brain
  GDNF, effect on mRNA/protein production: +
GDNF; Normal Brain
  GDNF, effect on mRNA/protein production: +
GDNF; Normal Spinal Cord
  GDNF, effect on mRNA/protein production: +

From patent US6338963B1, “Use of carbon monoxide dependent guanylyl cyclase modifiers to stimulate neuritogenesis” (NeoTherapeutics, Inc., priority 1994, dated 2002)
